Experimental data: ChEMBL document CHEMBL3046286, “4-Fluorophenylhydrazones as potential COX-2 inhibitors: a novel, efficient, one pot solid phase synthesis, docking study and pharmacological evaluation” (2013)

Experiments:
Type in all cases: functional
Rattus norvegicus [1] = assay: Antiinflammatory activity in Wistar albino rat assessed as carrageenan-induced paw edema at 50 mg/kg, po administered 30 mins prior to carrageenan-challenge measured after 3 hrs relative to control; settings: read-out: INH
Rattus norvegicus [2] = assay: Antiinflammatory activity in Wistar albino rat assessed as carrageenan-induced paw edema at 50 mg/kg, po administered 30 mins prior to carrageenan-challenge measured after 1 hr relative to control
Rattus norvegicus [3] = assay: Antiinflammatory activity in Wistar albino rat assessed as carrageenan-induced paw edema at 50 mg/kg, po administered 30 mins prior to carrageenan-challenge measured after 2 hrs relative to control
Rattus norvegicus [4] = assay: Antiinflammatory activity in Wistar albino rat assessed as carrageenan-induced paw edema at 50 mg/kg, ip administered 30 mins prior to carrageenan-challenge measured after 3 hrs relative to control; settings: route intraperitoneal
Rattus norvegicus [5] = assay: Antiinflammatory activity in Wistar albino rat assessed as carrageenan-induced paw edema at 50 mg/kg, ip administered 30 mins prior to carrageenan-challenge measured after 1 hr relative to control; settings: route intraperitoneal
Rattus norvegicus [6] = assay: Antiinflammatory activity in Wistar albino rat assessed as carrageenan-induced paw edema at 50 mg/kg, ip administered 30 mins prior to carrageenan-challenge measured after 2 hrs relative to control; settings: route intraperitoneal

SMILES | inhibition in vivo at 50 mg/kg (Rattus norvegicus [1]) [%] | inhibition in vivo at 50 mg/kg (Rattus norvegicus [2]) [%] | inhibition in vivo at 50 mg/kg (Rattus norvegicus [3]) [%] | inhibition in vivo at 50 mg/kg (Rattus norvegicus [4]) [%] | inhibition in vivo at 50 mg/kg (Rattus norvegicus [5]) [%] | inhibition in vivo at 50 mg/kg (Rattus norvegicus [6]) [%]
O=C(c1ccc(Br)cc1)C(NNc1ccc(F)cc1)C(=O)C(F)(F)F (stereo not drawn) | 43.2 | 17.3 | 30.4 | – | – | –
COc1ccc(C(=O)C(NNc2ccc(F)cc2)C(=O)C(F)(F)F)cc1 (stereo not drawn) | 40.6 | 15.4 | 26.6 | – | – | –
O=C(c1ccc([N+](=O)[O-])cc1)C(NNc1ccc(F)cc1)C(=O)C(F)(F)F (stereo not drawn) | 18.2 | 5.05 | 8.86 | – | – | –
O=C(c1ccc(F)cc1)C(NNc1ccc(F)cc1)C(=O)C(F)(F)F (stereo not drawn) | 42.4 | 18.3 | 28.5 | – | – | –
O=C(c1cccs1)C(NNc1ccc(F)cc1)C(=O)C(F)(F)F (stereo not drawn) | 17.4 | 4.11 | 7.93 | – | – | –
O=C(O)Cc1ccccc1Nc1c(Cl)cccc1Cl [DICLOFENAC SODIUM] | – | – | – | 46.8 | 20.1 | 30.4
